# In patent US20260248087A1, “GENERATING DOUBLED HAPLOID PLANTS” (Syngenta Crop Protection AG, priority 2023, published 2026):
# Legend:
# [1] = test system: GST27; assay: GST27 induction, metcamifen post-treatment during germination; format: cell-based, maize; conditions: for GST27 Mean: post-treatment in germination media (2.5 g/L Gelzan)
# Experimental: (§1) For the examples below, GST27 was used as a quick indicator for treatment effectiveness.
# Doubled haploid embryos were treated with metcamifen during germination. Metcamifen was tested in the germination media at 0, 5, and 10 mg/L after colchicine treatment completion for 24 or 48 hours. The germination media comprised Gelzan at a concentration of 3.5 g/L. Four genotypes were tested representing two heterotic groups. […] The percent potting rate was not increased as result of these post-treatments. […] This led to a looping of the roots. A reduction in Gelzan concentration from 3.5 g/L to 2.5 g/L was tested (comparison data not presented here). The experiments were then carried out with 2.5 g/L Gelzan for metcamifen post-treatments while the control (0 metcamifen) contained 3.5 g/L Gelzan. Metcamifen was tested as 0, 5, 10 and 20 mg/L after colchicine treatment completion for 24 and 48 hours. The reduction in Gelzan of the metcamifen post-treatments led to a higher percent potting rate (see Table 5).
# [2] = test system: GST27; assay: GST27 induction, metcamifen pre-treatment of maize ears; format: cell-based
# Experimental: as §1
# The effect of temperature was tested independently by comparing 6° C. and 28° C. for both 3 and 5 days with 150 PAR light.
# Maize ears were pre-treated with metcamifen prior to embryo isolation and before moving the embryos to colchicine-containing doubling media. In all experiments, doubling media is semi-solid, thickened with Gelzan, unless liquid media is specified. Two methods of delivering the safener at concentrations of 100 and 1000 mg/L were tested. The first method wrapped the ear in a paper towel that was wet with formulated metcamifen. The second method used a sprayer to deliver the formulated metcamifen onto the ear surface at 6° C. with 150 PAR light. GST27 was measured after metcamifen pre-treatment and again at the end of colchicine treatment. A low level of GST27 was induced (<10 ng/mg Total Soluble Protein (TSP)) at the end of the ear pre-treatment. Following ear pre-treatment, embryos were isolated and treated with colchicine for 48 hours.
# The addition of 0.5% Tween20 in the formulation with metcamifen at both 100 and 1000 mg/L was tested in combination with spraying corn ears as a pre-treatment prior to embryo isolation.
# [3] = test system: GST27; assay: GST27 induction, metcamifen pre-treatment of isolated embryos; format: cell-based, maize; conditions: for GST27 before doubling, Mean: embryo pre-treatment 10 mg/L in MS media; for GST27 Mean: embryo pre-treatment in MS media
# Experimental: as §1
# (§2) Embryos from maize ears were isolated and treated with metcamifen prior to a colchicine doubling treatment. Isolated embryos plated on filter paper were pre-treated with a formulation of metcamifen at concentrations of 0, 10, 100, and 1000 mg/L in Murashige and Skoog Medium (MS media) for a duration of 1, 3, 5, or 7 days at 6° C. with 150 PAR light. GST27 induction was measured after pre-treatment at each time point and again at the end of the colchicine treatment. Resulting embryos were germinated, and the percentage of embryos successfully transferred to soil (percent potted rate) was measured as an indicator of plant health and pre-treatment effectiveness. GST27 was induced by metcamifen at a medium level ([…] of TSP), but higher than ear pre-treatment that was less than 10 ng/ml of TSP.
# The addition of 10% DMSO in the metcamifen formulation at 10, 100, and 1000 mg/L in the MS media was tested to potentially increase the uptake of metcamifen. This test was done at temperatures of both 6° C. and 20° C. over a course of 0 to 4 days. There was no increase in GST27 expression with the 10% DMSO addition at either temperature.
# (§3) Embryo pre-treatment with metcamifen at 10 mg/L was tested at temperatures of 6° C. and 20° C. for 1 day to measure the impact of temperature on embryo health.
# [4] = test system: embryos from maize ears; assay: Potted rate after metcamifen pre-treatment of isolated embryos; format: in vivo
# Description: As used herein, the term “potted rate” or “potting rate” refers to the percent of germinated embryos successfully transferred to soil from total treated haploid embryos. The “potted rate” is used as an indication of plant health in monitoring the success of recovery and growth after treatment of haploids. As used herein, the term “transplant rate” refers to the survival of healthy plants after embryos were germinated and transferred to soil.
# as §2, §3
smiles,measurement,setting,value
"CNC(=O)Nc1ccc(S(=O)(=O)NC(=O)c2ccccc2OC)cc1 [Metcamifen, metcamifen]",GST27 expression versus control,"[1]; post-treatment 5 and 10 mg/L, 3.5 g/L Gelzan, 24 and 48 hours",higher than the control group
same,GST27 Mean,"[1]; 5 mg/L, Duration 24 hours",327 ng/mg TSP
same,GST27 Mean,"[1]; 5 mg/L, Duration 48 hours",317 ng/mg TSP
same,GST27 Mean,"[1]; 10 mg/L, Duration 24 hours",345 ng/mg TSP
same,GST27 Mean,"[1]; 10 mg/L, Duration 48 hours",290 ng/mg TSP
same,GST27 Mean,"[1]; 20 mg/L, Duration 24 hours",404 ng/mg TSP
same,GST27 Mean,"[1]; 20 mg/L, Duration 48 hours",400 ng/mg TSP
same,GST27 induced at the end of the ear pre-treatment,"[2]; ear pre-treatment, 100 and 1000 mg/L, 6° C.",< 10 ng/mg Total Soluble Protein (TSP)
same,GST27 induced by ear pre-treatment,"[2]; ear pre-treatment, as restated in Example 3",less than 10 ng/ml of TSP
same,"GST27 before doubling, Mean","[2]; ear pre-treatment, metcamifen 100 mg/L, 3 days, 6° C.",4 ng/mg of TSP
same,"GST27 after doubling, Mean","[2]; ear pre-treatment, metcamifen 100 mg/L, 3 days, 6° C., then colchicine 48 hours",156 ng/mg of TSP
same,"GST27 before doubling, Mean","[2]; ear pre-treatment, metcamifen 100 mg/L, 5 days, 6° C.",2 ng/mg of TSP
same,"GST27 after doubling, Mean","[2]; ear pre-treatment, metcamifen 100 mg/L, 5 days, 6° C., then colchicine 48 hours",245 ng/mg of TSP
same,"GST27 before doubling, Mean","[2]; ear pre-treatment, metcamifen 1000 mg/L, 3 days, 6° C.",3 ng/mg of TSP
same,"GST27 after doubling, Mean","[2]; ear pre-treatment, metcamifen 1000 mg/L, 3 days, 6° C., then colchicine 48 hours",178 ng/mg of TSP
same,"GST27 before doubling, Mean","[2]; ear pre-treatment, metcamifen 1000 mg/L, 5 days, 6° C.",4 ng/mg of TSP
same,"GST27 after doubling, Mean","[2]; ear pre-treatment, metcamifen 1000 mg/L, 5 days, 6° C., then colchicine 48 hours",303 ng/mg of TSP
same,GST27 induction at the end of the colchicine treatment,"[2]; ear pre-treatment, then colchicine 48 hours",increased but insignificant
same,GST27 expression level with addition of 0.5% Tween20,"[2]; spraying corn ears, 100 and 1000 mg/L, over 4 days",did not improve
same,GST27 induction in comparison to the control and other doses,"[3]; 10 mg/L, all time points, 6° C. and 20° C., DMSO test",best GST27 induction
same,GST27 expression with 10% DMSO addition,"[3]; 10, 100, 1000 mg/L in MS media, 6° C. and 20° C., 0 to 4 days",no increase
same,"GST27 before doubling, Mean","[3]; 1 day, 6° C.",8.83 ng/mg TSP
same,"GST27 before doubling, Mean","[3]; 1 day, 20° C.",140 ng/mg TSP
same,GST27 Mean,"[3]; 10 mg/L, 1 day, 6° C.",9 ng/mg TSP
same,GST27 Mean,"[3]; 10 mg/L, 3 days, 6° C.",14 ng/mg TSP
same,GST27 Mean,"[3]; 10 mg/L, 5 days, 6° C.",37 ng/mg TSP
same,GST27 Mean,"[3]; 10 mg/L, 7 days, 6° C.",75 ng/mg TSP
same,GST27 Mean,"[3]; 100 mg/L, 1 day, 6° C.",21 ng/mg TSP
same,GST27 Mean,"[3]; 100 mg/L, 3 days, 6° C.",30 ng/mg TSP
same,GST27 Mean,"[3]; 100 mg/L, 5 days, 6° C.",61 ng/mg TSP
same,GST27 Mean,"[3]; 100 mg/L, 7 days, 6° C.",92 ng/mg TSP
same,GST27 Mean,"[3]; 1000 mg/L, 1 day, 6° C.",11 ng/mg TSP
same,GST27 Mean,"[3]; 1000 mg/L, 3 days, 6° C.",71 ng/mg TSP
same,GST27 Mean,"[3]; 1000 mg/L, 5 days, 6° C.",60 ng/mg TSP
same,GST27 Mean,"[3]; 1000 mg/L, 7 days, 6° C.",108 ng/mg TSP
same,GST27 induced by metcamifen (medium level),"[3]; embryo pre-treatment, 10-1000 mg/L, 1-7 days, 6° C.",< 100 ng/ml of TSP
same,Potted Rate Mean,"[4]; embryo pre-treatment 10 mg/L in MS media, 1 day, 6° C. (Table 3 experiment)",62%
same,Potted Rate Mean,"[4]; embryo pre-treatment 10 mg/L in MS media, 1 day, 6° C. (Table 3 experiment), listed as metcamifen",significantly higher potting rate than the control
same,Potted Rate Mean,"[4]; embryo pre-treatment 10 mg/L in MS media, 1 day, 20° C.",23%
same,Potted Rate Mean,"[4]; embryo pre-treatment 10 mg/L in MS media, 1 day, 20° C., listed as metcamifen",2%
same,Potted Rate Mean,"[4]; embryo pre-treatment in MS media, 10 mg/L, 1 day, 6° C.",46%
same,Potted Rate Mean,"[4]; embryo pre-treatment in MS media, 10 mg/L, 3 days, 6° C.",38%
same,Potted Rate Mean,"[4]; embryo pre-treatment in MS media, 10 mg/L, 5 days, 6° C.",4%
same,Potted Rate Mean,"[4]; embryo pre-treatment in MS media, 10 mg/L, 7 days, 6° C.",27%
same,Potted Rate Mean,"[4]; embryo pre-treatment in MS media, 100 mg/L, 1 day, 6° C.",12%
same,Potted Rate Mean,"[4]; embryo pre-treatment in MS media, 100 mg/L, 3 days, 6° C.",12%
same,Potted Rate Mean,"[4]; embryo pre-treatment in MS media, 100 mg/L, 5 days, 6° C.",16%
same,Potted Rate Mean,"[4]; embryo pre-treatment in MS media, 100 mg/L, 7 days, 6° C.",24%
same,Potted Rate Mean,"[4]; embryo pre-treatment in MS media, 1000 mg/L, 1 day, 6° C.",10%
same,Potted Rate Mean,"[4]; embryo pre-treatment in MS media, 1000 mg/L, 3 days, 6° C.",16%
same,Potted Rate Mean,"[4]; embryo pre-treatment in MS media, 1000 mg/L, 5 days, 6° C.",17%
same,Potted Rate Mean,"[4]; embryo pre-treatment in MS media, 1000 mg/L, 7 days, 6° C.",17%
